The test system of data set [1] is K. pneumoniae ATCC 43816 (WT). Kind of data set: MIC of antibiotics with and without EPI (REMA), WT strain. The class given is cell-based, Klebsiella pneumoniae. To be noted: for Minimum Inhibitory Concentration: K. pneumoniae WT. The method, then:
Overnight cultures were diluted to an OD600 = 0.001 in CAMHB followed by addition of efflux pump inhibitors (EPIs) at a final concentration of 100 µM. […] Plates were incubated at 37 °C for up to 20 h. […] MICs were defined as the concentration that prevented 90% of resazurin turnover compared to the non-treated bacteria.

The next data set has as its system K. pneumoniae AcrB^V448E. Kind of data set: MIC of antibiotics with and without EPI (REMA), AcrB V448E mutant. The data set is classed as cell-based, Klebsiella pneumoniae. The following applies: for Minimum Inhibitory Concentration: K. pneumoniae AcrB^V448E. How it is done:
(§1) MIC experiments were carried out according to the CLSI guidelines (CLSI [2023]). Overnight cultures were diluted to an OD600 = 0.001 in CAMHB followed by addition of efflux pump inhibitors (EPIs) at a final concentration of 100 µM. […] Plates were incubated at 37 °C for up to 20 h. Bacterial viability was evaluated using the resazurin microtitre assay (REMA) and measured by fluorescence using a Tecan Spaert multimode plate reader (Ex: 530 nm Em: 590 nm). MICs were defined as the concentration that prevented 90% of resazurin turnover compared to the non-treated bacteria.
(§2) Mutations in acrB or ramR identified in the BDM88855.HCl (1’) resistant mutant (a.k.a., KPJC11) were introduced individually into K. pneumoniae ATCC 43816 chromosome by allelic exchange (Cianfanelli et al, [2020]). Briefly, 1-kb PCR products centred around each point mutation were generated by amplifying acrB with primers RH1251 ([…][…]) and RH1252 ([…][…]) or ramR with primers RH1249 ([…][…]) and RH1250 ([…][…]) from KPJC11 genomic DNA. PCR fragments were cloned into pFOK (Cianfanelli et al, [2020]) using NEB-building kit ([New England Biolabs]) to generate pEP1533 and pEP1534. Correct plasmids were confirmed by sequencing and introduced into K. pneumoniae ATCC43816 WT via conjugation with the MFDpir+ E. coli donor strain. Exconjugants were selected on kanamycin (50 mg/L) plates at 37 °C and plasmid chromosomal integration was checked by PCR. […] The next day, cultures were diluted and plated onto LB agar. Isolated colonies were then patched onto LB plates with or without kanamycin (50 mg/L) and Km^S candidates were evaluated for correct allelic exchange via acrB or ramR sequencing and then WGS to confirm no additional mutations were introduced.

The test system of data set [2] is K. pneumoniae RamR^mut (K124*stop). Kind of data set: MIC of antibiotics with and without EPI (REMA), RamR mutant. To be noted: for Minimum Inhibitory Concentration: K. pneumoniae RamR^mut. The class given is cell-based, Klebsiella pneumoniae. The method, then:
as §1, §2

Data set [3] concerns K. pneumoniae AcrB^V448E RamR^mut. Kind of data set: MIC of antibiotics with and without EPI (REMA), double mutant. The class given is cell-based, Klebsiella pneumoniae. To be noted: for Minimum Inhibitory Concentration: K. pneumoniae AcrB^V448E RamR^mut. How it is done: as §1
The next data set has as its system E. coli BW25113. Kind of data set: PyrPip boosting of pyridomycin activity in E. coli (resazurin reduction). The class given is cell-based, Escherichia coli. The following applies: for EC90: read-out: PyrPip antibiotic boosting activity EC90. The source says:
With the aim of developing a PyrPip for in vivo efficacy studies in mice, it was important to optimise the metabolic stability of these efflux pump inhibitors to guarantee sufficient exposure in mice needed for antibiotic boosting. […] To identify metabolically stabilised PyrPips while maintaining AcrB inhibition, it was therefore decided to explore modifications to the quinoline core as well as the introduction of substituents at position 6 of the quinoline ring.
A general note: The colour change of resazurin is a common sign of viable cells or microbes.

The nature of data set [4]: Microsomal stability in mouse liver microsomes. The class given is in vitro ADME. To be noted: for microsomal CLint at 1 μM / half-life at 1 μM: female; for microsomal CLint at 1 μM: CD-1, pH 7.4, read-out: Microsomal stability CLint (intrinsic clearance); for half-life at 1 μM: CD-1, pH 7.4, read-out: Microsomal stability t1/2. The method, then: To determine compound microsomal stability, liver microsomes from female mice (CD-1, Corning) were used. All incubations were performed in duplicate in a shaking water bath at 37 °C. The incubation mixtures contained 1 μM compound with 1% MeOH used as a vehicle, mouse liver microsomes (0.3 mg of microsomal protein per mL), 5 mM MgCl2, 1 mM NADP, 5 mM glucose 6-phosphate, 0.4 U/mL glucose 6-phosphate dehydrogenase, and 50 mM potassium phosphate buffer (pH 7.4) in a final volume of 0.5 mL. Propranolol, known as a high hepatic clearance drug in rodents, was used as a quality-control compound. Controls (t0 and tfinal) were performed in the same conditions but without NADP. The reaction was initiated by the addition of the compound at 1 µM final. Aliquots were removed at 5, 10, 20, 30, and 40 min and the reaction was stopped by adding four volumes of ice-cold MeCN or MeOH containing an internal standard. The samples were centrifuged for 10 min at 12,000 rpm at 4 °C and the supernatants were transferred in matrix tubes for LC-MS/MS analysis. Each compound was quantified by converting the corresponding analyte/internal standard peak area ratios to percentage drug remaining, using the initial ratio values in control incubations as 100%.
Intrinsic clearance (CLint) is expressed as μL/min/mg proteins.
(In general: Liver microsomes are a subcellular fraction often used to study metabolism.)

The mark [5] stands for this setting: Klebsiella pneumoniae, read-out: Minimum Inhibitory Concentration.
Where [6] appears, read: E. coli BW25113 in the presence of 8 μg/mL pyridomycin, resazurin reduction, mean ± SEM.

In general, EC90 refers to the concentration needed for an effect of 90%. For orientation: microsomal CLint means the capacity of the preparation to metabolise the compound, expressed as a volume cleared per time.

Marks after values point to notes of the source that are not given here.

For `CN(C)[C@@H]1C(O)=C(C(N)=O)C(=O)[C@@]2(O)C(O)=C3C(=O)c4c(O)cccc4[C@@](C)(O)[C@H]3C[C@@H]12` [Tetracycline], the “Minimum Inhibitory Concentration” value in data set [1] (+ 100 µM 1') was 0.4^# mg/L; in data set [1] (+ 100 µM 5), 0.4^# mg/L; in data set [1] (+ 100 µM PAβN) it was 1.3 mg/L; in the data set with K. pneumoniae AcrB^V448E (+ 100 µM 1') it was 0.8^# mg/L; in the data set on K. pneumoniae AcrB^V448E (+ 100 µM 5) it was 0.7^# mg/L; in the data set with K. pneumoniae AcrB^V448E (+ 100 µM PAβN), 2.7 mg/L. Also, the “Minimum Inhibitory Concentration” value in data set [2] (+ 100 µM 1') is reported as 1.1^# mg/L; in data set [2] (+ 100 µM 5), 0.7^# mg/L; in data set [2] (+ 100 µM PAβN) it was 4.3^# mg/L; in data set [3] (+ 100 µM 1') it was 11 mg/L; in data set [3] (+ 100 µM 5), 8.5 mg/L; in data set [3] (+ 100 µM PAβN), 4.3^# mg/L. The MIC is 0.8 µg/mL in data set [1] (Klebsiella pneumoniae, ATCC43816, read-out: Minimum Inhibitory Concentration); 1.9 µg/mL in the data set on K. pneumoniae AcrB^V448E (setting [5]); 8.5 µg/mL in data set [2] (setting [5]); 11 µg/mL in data set [3] (setting [5]).

As for `Clc1cc2ccccc2nc1N1CCNCC1` [compound 1], the “PyrPip antibiotic boosting activity EC90” value in the data set on E. coli BW25113 (setting [6]) was found to be 3.6 ± 0.5 µM. In data set [4], the “Microsomal stability CLint (intrinsic clearance)” value worked out at 59 μL/min/mg proteins and the “Microsomal stability t1/2” value came out at 24 min. In addition, the “susceptibility of the strain to antibiotic boosting by the EPI, in words” value in the data set with K. pneumoniae AcrB^V448E (K. pneumoniae-AcrB^V448E, Table 2) was “resistant”. In addition, the “EPI mediated antibiotic boosting, in words” value in data set [2] (K. pneumoniae-RamR^mut, Table 2) is listed as “maintained”.

Consider `Clc1nc2ccccc2cc1N1CCNCC1` [compound 2], for which the EC90 in the data set with E. coli BW25113 (setting [6]) stood at 15.6 µM. Also, in the data set with E. coli BW25113 (relative to BDM88855.HCl (1’)), the “decrease in potency (EC90) on changing the position of the nitrogen atom” value is 4 fold.

As to `Clc1nc2ccccc2nc1N1CCNCC1` [compound 3], in the data set on E. coli BW25113 (setting [6]), the EC90 was 3.9 ± 1.6 µM. Moreover, in data set [4], the microsomal CLint at 1 μM amounted to 111 µL/min/mg and the half-life at 1 μM was 15 min.

For `Clc1cc2cc[nH]c2nc1N1CCNCC1` [compound 4], in the data set with E. coli BW25113 (setting [6]), the EC90 was greater than 250 µM.

Consider `Clc1cc2cc(N3CCOCC3)ccc2nc1N1CCNCC1` [compound 6], for which the EC90 with E. coli BW25113 (setting [6]) stood at 104 ± 28 µM. In addition, in data set [4], the microsomal CLint at 1 μM was determined as 103 µL/min/mg and the half-life at 1 μM is 11 min.

As to `Clc1cc2cc(N3CCCCC3)ccc2nc1N1CCNCC1` [compound 7], in the data set with E. coli BW25113 (setting [6]), the concentration for an effect of 90% (EC90) is 13 ± 4 µM. Moreover, in data set [4], the microsomal CLint at 1 μM amounted to 223 µL/min/mg and the half-life at 1 μM was 6 min.

Turning to `O=C1CNCCN1c1ccc2nc(N3CCNCC3)c(Cl)cc2c1` [compound 8], in the data set on E. coli BW25113 (setting [6]), the EC90 worked out at 31 µM. The “decrease in potency (EC90)” value in the data set with E. coli BW25113 (piperazinone in place of the piperazine of compound 5) is given as 8 fold.

`NCCNc1ccc2nc(N3CCNCC3)c(Cl)cc2c1` [compound 9]: the EC90 with E. coli BW25113 (setting [6]) was 3.9 µM. Further, in data set [4], the microsomal CLint at 1 μM was 47 µL/min/mg and the half-life at 1 μM came to 40 min.

For `NCC(=O)Nc1ccc2nc(N3CCNCC3)c(Cl)cc2c1` [compound 10], the EC90 in the data set with E. coli BW25113 (setting [6]) came out at 3.9 µM. In addition, in data set [4], the microsomal CLint at 1 μM amounted to 2 µL/min/mg and the half-life at 1 μM is greater than 40 min.

With `NCCCNc1ccc2nc(N3CCNCC3)c(Cl)cc2c1` [compound 11], the concentration for an effect of 90% (EC90) with E. coli BW25113 (setting [6]) was 7.8 µM. Besides, the “decrease in potency (EC90)” value in the data set on E. coli BW25113 (relative to compound 9) was 2 fold.

On to `N[C@@H]1CCN(c2ccc3nc(N4CCNCC4)c(Cl)cc3c2)C1` [compound 12], for which the EC90 in the data set with E. coli BW25113 (setting [6]) was 1.3 ± 0.4 µM. Also, the “improvement of potency (EC90)” value in the data set on E. coli BW25113 (compared to analogue 5) amounted to 3 fold. Also, in data set [4], the microsomal CLint at 1 μM was found to be 303 µL/min/mg and the half-life at 1 μM amounted to 2.6 min.

On to `N[C@H]1CCN(c2ccc3nc(N4CCNCC4)c(Cl)cc3c2)C1` [compound 13], for which, in the data set on E. coli BW25113 (setting [6]), the EC90 came to 9.1 ± 4.3 µM.
